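48-hour exposure; five concentrations; linearly interpolated endpoints. Here, GI50 denotes the concentration required for 50% inhibition of growth. Definition used: TGI = concentration required for complete inhibition of growth.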
What was measured:
Assay in all cases: DTP human tumour cell line panel, 48 h
[1] = tested on: HOP-18 NSCLC
[2] = tested on: UO-31 renal
[3] = tested on: K-562 leukemia
[4] = tested on: A549 NSCLC
[5] = tested on: LXFL 529 NSCLC
[6] = tested on: DMS 273 small cell lung
[7] = tested on: DMS 114 small cell lung
[8] = tested on: MALME-3M melanoma
[9] = tested on: MOLT-4 leukemia
[10] = tested on: HOP-92 NSCLC
[11] = tested on: HS 578T breast

| Structure (SMILES) | TGI [1] [µM] | TGI [2] [µM] | TGI [3] [µM] | TGI [4] [µM] | TGI [5] [µM] | TGI [6] [µM] | TGI [7] [µM] | TGI [8] [µM] | TGI [9] [µM] | TGI [10] [µM] | GI50 [2] [µM] | GI50 [3] [µM] | GI50 [4] [µM] | GI50 [11] [µM] | TGI [11] [µM] | GI50 [8] [µM] | GI50 [9] [µM] | GI50 [10] [µM] |
| --- | --- | --- | --- | --- | --- | --- | --- | --- | --- | --- | --- | --- | --- | --- | --- | --- | --- | --- |
| CN1CCCc2nc3ccccc3n2C1 | > 100 | > 100 | > 100 | > 100 | > 100 | > 100 | > 100 | > 100 | > 100 | > 100 | – | – | – | – | – | – | – | – |
| O=C(Nc1nc(=S)[nH][nH]1)C(=O)C(c1cnc2ccc([N+](=O)[O-])cc2n1)[N+](=O)[O-] (stereo not drawn) | > 100 | > 100 | > 100 | > 100 | > 100 | – | > 100 | > 100 | > 100 | > 100 | – | – | – | – | – | – | – | – |
| N#Cc1ccccc1Sc1ccccc1N | > 100 | > 100 | > 100 | > 100 | > 100 | > 100 | > 100 | > 100 | > 100 | > 100 | – | – | – | – | – | – | – | – |
| CCc1c(OC(C)=O)c2c(NC3OC(COC(C)=O)C(OC(C)=O)C(OC(C)=O)C3OC(C)=O)nc(SC)nc2oc1=O (stereo not drawn) | > 100 | > 100 | > 100 | > 100 | > 100 | – | > 100 | > 100 | > 100 | > 100 | – | – | – | – | – | – | – | – |
| Cc1ccc(S(=O)(=O)Nc2ccccc2C(C)(C)C)cc1 | – | 47.3 | 50.1 | > 100 | 78.1 | 38.5 | 60.4 | 89.1 | 62.8 | – | – | – | – | – | – | – | – | – |
| CCC(Oc1ccc(OC)c2c1C(=O)CCC2)C(=O)O (stereo not drawn) | – | > 100 | > 100 | > 100 | > 100 | > 100 | > 100 | > 100 | > 100 | – | – | – | – | – | – | – | – | – |
| O=C([O-])c1ccc([I+]c2ccccc2)cc1 | > 100 | > 100 | > 100 | > 100 | > 100 | > 100 | > 100 | > 100 | > 100 | > 100 | – | – | – | – | – | – | – | – |
| CCCCCCCCCCCCCCCC(=O)OCC1OC(n2cc(F)c(=O)[nH]c2=O)C(NC(=O)OCc2ccccc2)C(O)C1O (stereo not drawn) | 37.8 | 35.2 | 31.8 | 38.5 | 31.5 | 32.4 | 33.4 | 9.44 | 38.3 | 31.5 | – | – | – | – | – | – | – | – |
| CS(=O)(=O)OCCN1CCN(C(=O)c2ccc(Cl)c3c(Nc4ccc(S(=O)(=O)N=C(N)N)cc4)c4ccccc4nc23)CC1 | – | > 100 | > 100 | > 100 | – | > 100 | > 100 | > 100 | > 100 | > 100 | – | – | – | – | – | – | – | – |
| O=C1C=CC2(CCC23C=CC(=O)O3)O1 (stereo not drawn) | > 100 | > 100 | > 100 | > 100 | > 100 | – | > 100 | > 100 | > 100 | – | – | – | – | – | – | – | – | – |
| C#Cc1cccc(NC(=O)/C=C\C(=O)O)c1 | – | > 100 | > 100 | > 100 | > 100 | – | – | > 100 | > 100 | > 100 | – | – | – | – | – | – | – | – |
| CC(C)c1ccc(Cc2ccc(C(C)C)c(NC(=O)C(=O)Cc3cnc4ccccc4n3)c2C(C)C)c(C(C)C)c1NC(=O)C(=O)Cc1cnc2ccccc2n1 | – | > 100 | > 100 | > 100 | > 100 | – | > 100 | > 100 | > 100 | 91.8 | – | – | – | – | – | – | – | – |
| C=C1C(=O)O[C@@H]2C[C@@]3(C)[C@H](O)CCC(=C)[C@@H]3C[C@H]12 | – | 23.2 | 10.2 | 70.5 | 12.8 | 27.4 | 42.2 | 12.6 | – | 18.2 | – | – | – | – | – | – | – | – |
| CCOC(=O)C1=C(C)N(NC(N)=O)C2(N)N(NC(N)=O)C(C)=C(C(=O)OCC)C12C#N (stereo not drawn) | – | > 100 | > 100 | > 100 | > 100 | > 100 | > 100 | > 100 | > 100 | – | – | – | – | – | – | – | – | – |
| CCOC(=O)C[C@@]12CCCN[C@]1(C)CCc1ccccc12 | > 100 | > 100 | > 100 | > 100 | > 100 | – | – | > 100 | > 100 | > 100 | – | – | – | – | – | – | – | – |
| CC(C)(C)C1=NO[C@H]2[C@@H](NC(=O)c3ccccc3)CC[C@@H]12 | – | > 100 | > 100 | > 100 | > 100 | – | > 100 | > 100 | > 100 | > 100 | – | – | – | – | – | – | – | – |
| N#CC(C(=O)Nc1ccccc1)C1=C(Cl)C(=O)c2ccccc2C1=O (stereo not drawn) | 22.7 | 26.9 | 52.5 | 43.4 | 35.5 | – | 41.7 | 26.7 | – | 27.9 | – | – | – | – | – | – | – | – |
| Cc1ccc(-n2c3nc(=O)n(C)c(=O)c-3nc3ccccc32)c(C)c1 | 20.1 | 52.5 | 40.6 | 20.4 | 24.8 | 18.5 | – | 12.9 | 36.2 | – | – | – | – | – | – | – | – | – |
| CC(C)(C)OC(=O)N[C@H]1CC(=O)c2ccccc2N(CC(=O)O)C1=O | > 100 | > 100 | – | > 100 | > 100 | > 100 | > 100 | 37.1 | > 100 | > 100 | – | – | – | – | – | – | – | – |
| O=C(Nc1ccccc1C(=O)NC(=O)c1ccccc1NC(=O)c1ccccc1)c1ccccc1 | 17.9 | – | 18.3 | 23.1 | – | 7.78 | 9.74 | 12.1 | – | 6.5 | – | – | – | – | – | – | – | – |
| O=c1c2ccccc2nc(-c2cccc(Cl)c2)n1NC1OC(CO)C(O)C(O)C1O (stereo not drawn) | > 100 | > 100 | > 100 | > 100 | > 100 | > 100 | > 100 | > 100 | > 100 | > 100 | – | – | – | – | – | – | – | – |
| Cc1ccc2ccc3c4ccccc4ccc3c2c1 | – | > 100 | > 100 | > 100 | – | – | – | 54.3 | 57.6 | 43.9 | 23.3 | 34.7 | 29.2 | 27.7 | > 100 | 22.1 | 21.2 | 12.7 |
| O=[N+]([O-])c1cccnc1S(=O)(=O)c1ccccc1 | 25.7 | 14 | > 43.8 | 40.4 | 5.87 | 21.3 | 8.53 | 23.8 | > 25.7 | 3.64 | – | – | – | – | – | – | – | – |

Reference: PubChem BioAssay (NCI)
